Data published in PMC6399351, “Cationic Intrinsically Disordered Antimicrobial Peptides (CIDAMPs) Represent a New Paradigm of Innate Defense with a Potential for Novel Anti-Infectives” (Scientific Reports, 2019).
Like-named read-outs stand apart in the source and are kept apart here. Square brackets hold non-standard residues; d marks the D form. Ends that are not written are not given here. Peptide text beside a SMILES is read from it. * marks the point of attachment. Palmitoyl = CCCCCCCCCCCCCCCC(=O)*; Myristoyl = CCCCCCCCCCCCCC(=O)*

Experiments:
S. aureus ATCC 6538 = conditions: CFU assay, 10 mM NaP
P. aeruginosa ATCC 10145 = conditions: CFU assay, 10 mM NaP, pH 5.5, 0.25% glucose

Compound | LD90 (S. aureus ATCC 6538; pH 5.5, 0.25% glucose) | LD100 (S. aureus ATCC 6538; pH 5.5, 0.25% glucose) | LD90 (P. aeruginosa ATCC 10145) | LD100 (P. aeruginosa ATCC 10145) | LD90 (S. aureus ATCC 6538; pH 7.3, 1% TSB) | LD100 (S. aureus ATCC 6538; pH 7.3, 1% TSB)
CCCCCCCCCCCCCCCC(=O)NCC(=O)N[C@@H](CCCCN)C(=O)N[C@@H](CCCCN)C(=O)NCC(=O)NCC(=O)N[C@@H](CCCCN)C(=O)NCC(=O)NCC(=O)N[C@@H](CCCCN)C(=O)NCC(=O)N[C@@H](CCCCN)C(=O)NCC(=O)N[C@@H](CCCCN)C(=O)O [Pal-K-GR13] (Palmitoyl-GKKGGKGGKGKGK-OH; C-terminus assumed) | 0.59 µg/mL | >300 µg/mL | < 0.019 µg/mL | 0.15 µg/mL | – | –
CCCCCCCCCCCCCCCC(=O)NCC(=O)N[C@H](CCCNC(=N)N)C(=O)N[C@H](CCCNC(=N)N)C(=O)NCC(=O)NCC(=O)N[C@H](CCCNC(=N)N)C(=O)NCC(=O)NCC(=O)N[C@H](CCCNC(=N)N)C(=O)O [(D)-Pal-GR9] (Palmitoyl-G[dR][dR]GG[dR]GG[dR]-OH; C-terminus assumed) | 0.15 µg/mL | 2.35 µg/mL | 0.038 µg/mL | 0.59 µg/mL | – | –
CCCCCCCCCCCCCC(=O)NCC(=O)N[C@@H](CCCNC(=N)N)C(=O)N[C@@H](Cc1c[nH]cn1)C(=O)NCC(=O)N[C@@H](CO)C(=O)NCC(=O)N[C@@H](CC(C)C)C(=O)NCC(=O)N[C@@H](Cc1c[nH]cn1)C(=O)N[C@@H](CO)C(=O)N[C@@H](CO)C(=O)N[C@@H](CO)C(=O)N[C@@H](Cc1c[nH]cn1)C(=O)NCC(=O)N[C@@H](CCC(N)=O)C(=O)N[C@@H](Cc1c[nH]cn1)C(=O)NCC(=O)N[C@@H](CO)C(=O)NCC(=O)N[C@@H](CO)C(=O)NCC(=O)N[C@@H](CCCNC(=N)N)C(=O)O [Myr-HR 1-18] (Myristoyl-GRHGSGLGHSSSHGQHGSGSGR-OH; C-terminus assumed) | 9.38 µg/mL | 75 µg/mL | 0.075 µg/mL | 0.3 µg/mL | 18.75 µg/mL | 75 µg/mL
CCCCCCCCCCCCCCCC(=O)NCC(=O)N[C@H](CCCCN)C(=O)NCC(=O)N[C@H](CCCCN)C(=O)O [Pal-(D)-GK4] (Palmitoyl-G[dK]G[dK]-OH; C-terminus assumed) | 4.7 µg/mL | 9.375 µg/mL | 1.18 µg/mL | 4.7 µg/mL | – | –
CCCCCCCCCCCCCCCC(=O)NCC(=O)N[C@H](CCCNC(=N)N)C(=O)NCC(=O)N[C@H](CCCNC(=N)N)C(=O)O [Pal-(D)-GR4] (Palmitoyl-G[dR]G[dR]-OH; C-terminus assumed) | 18.75 µg/mL | 37.5 µg/mL | 18.75 µg/mL | 150 µg/mL | – | –
CCCCCCCCCCCCCCCC(=O)SC[C@H](NC(=O)CNC(=O)[C@H](CO)NC(=O)[C@H](CO)NC(=O)[C@H](CCC(N)=O)NC(=O)[C@H](Cc1c[nH]c2ccccc12)NC(=O)[C@H](CO)NC(=O)[C@H](CO)NC(=O)[C@H](CO)NC(=O)[C@H](CCC(=O)O)NC(=O)[C@H](Cc1c[nH]cn1)NC(=O)[C@H](Cc1c[nH]cn1)NC(=O)CNC(=O)[C@H](Cc1ccccc1)NC(=O)CNC(=O)[C@H](CO)NC(=O)[C@H](CO)NC(=O)[C@H](CCC(N)=O)NC(=O)CNC(=O)[C@H](CO)NC(=O)CNC(=O)[C@H](CO)NC(=O)CNC(=O)[C@H](Cc1c[nH]cn1)NC(=O)[C@H](CCCNC(=N)N)NC(=O)CN)C(N)=O [S-Pal-HRNR1389–1414] (H-GRHGSGSGQSSGFGHHESSSWQSSGC(Palmitoyl)-NH2; N-terminus assumed) | 1.18 µg/mL | 18.8 µg/mL | – | – | – | –
CCCCCCCCCCCCCCCC(=O)SC[C@H](NC(=O)[C@H](Cc1ccccc1)NC(=O)[C@H](Cc1c[nH]cn1)NC(=O)CNC(=O)[C@H](CO)NC(=O)CNC(=O)[C@H](CO)NC(=O)CNC(=O)[C@H](Cc1c[nH]cn1)NC(=O)[C@H](CCC(N)=O)NC(=O)[C@H](CO)NC(=O)[C@H](Cc1ccc(O)cc1)NC(=O)[C@H](C)NC(=O)[C@H](CO)NC(=O)[C@H](CO)NC(=O)[C@H](Cc1c[nH]cn1)NC(=O)CNC(=O)[C@H](CO)NC(=O)CNC(=O)[C@H](CO)NC(=O)[C@H](CCC(=O)O)NC(=O)[C@H](Cc1c[nH]cn1)NC(=O)[C@H](CCC(N)=O)NC(=O)CNC(=O)[C@H](Cc1ccccc1)NC(=O)[C@@H](NC(=O)[C@H](CO)NC(=O)[C@H](CO)NC(=O)[C@H](Cc1c[nH]cn1)NC(=O)CNC(=O)[C@@H](N)CO)C(C)C)C(N)=O [S-Pal-HRNR1748–1778] (H-SGHSSVFGQHESGSGHSSAYSQHGSGSGHFC(Palmitoyl)-NH2; N-terminus assumed) | 0.3 µg/mL | 9.38 µg/mL | – | – | – | –
SHHRPRLFHRRRH [LCE-2B74-86] | 1.18 µg/mL | > 150 µg/mL | – | – | – | –
CCCCCCCCCCCCCCCC(=O)SC[C@H](N)C(=O)NCC(=O)N[C@@H](CCC(N)=O)C(=O)N[C@@H](Cc1c[nH]cn1)C(=O)NCC(=O)N[C@@H](C)C(=O)N[C@H](C(=O)N[C@@H](CO)C(=O)NCC(=O)N[C@@H](CCC(N)=O)C(=O)N[C@@H](CO)C(=O)N[C@@H](CO)C(=O)N[C@@H](CO)C(=O)N[C@@H](Cc1c[nH]cn1)C(=O)NCC(=O)N[C@@H](CCC(N)=O)C(=O)N[C@@H](Cc1c[nH]cn1)C(=O)NCC(=O)N[C@@H](CO)C(=O)NCC(=O)N[C@@H](CO)C(=O)N[C@@H](CO)C(=O)N[C@@H](CCC(N)=O)C(=O)N[C@@H](CO)C(=O)N[C@@H](CO)C(=O)N[C@@H](CCCNC(=N)N)C(=O)O)[C@@H](C)O [S-Pal-HRNR623–648] (H-C(Palmitoyl)GQHGATSGQSSSHGQHGSGSSQSSR-OH; N-terminus and C-terminus assumed) | 2.35 µg/mL | > 150 µg/mL | – | – | – | –
N=C(N)NCCC[C@H](NC(=O)[C@H](CC(=O)O)NC(=O)[C@H](CS)NC(=O)[C@H](CO)NC(=O)[C@H](CC(N)=O)NC(=O)[C@H](CO)NC(=O)[C@H](CCCNC(=N)N)NC(=O)[C@H](CCC(N)=O)NC(=O)[C@H](CCCNC(=N)N)NC(=O)[C@H](CCCNC(=N)N)NC(=O)[C@H](CS)NC(=O)[C@H](CCC(N)=O)NC(=O)[C@H](Cc1c[nH]cn1)NC(=O)[C@H](CO)NC(=O)[C@H](CCCNC(=N)N)NC(=O)[C@H](Cc1ccccc1)NC(=O)[C@H](Cc1c[nH]cn1)NC(=O)[C@H](CCCNC(=N)N)NC(=O)[C@H](Cc1c[nH]cn1)NC(=O)[C@H](Cc1c[nH]cn1)NC(=O)[C@@H](N)CO)C(=O)O [LCE-3C55-75] (H-SHHRHFRSHQCRRQRSNSCDR-OH; N-terminus and C-terminus assumed) | 0.59 µg/mL | > 150 µg/mL | – | – | – | –
GRRGGGGGRGGGRGGRGGGGGR [HR 1-18,G+R] | > 300 µg/mL | > 300 µg/mL | – | – | – | –
CCCCCCCCCCCCCCCC(=O)SC[C@H](N)C(=O)NCC(=O)N[C@@H](CCC(N)=O)C(=O)N[C@@H](Cc1c[nH]cn1)C(=O)NCC(=O)N[C@@H](C)C(=O)N[C@H](C(=O)N[C@@H](CO)C(=O)N[C@@H](CO)C(=O)NCC(=O)N[C@@H](CCC(N)=O)C(=O)N[C@@H](CO)C(=O)N[C@@H](CO)C(=O)N[C@@H](CO)C(=O)N[C@@H](Cc1c[nH]cn1)C(=O)NCC(=O)N[C@@H](CCC(N)=O)C(=O)N[C@@H](Cc1c[nH]cn1)C(=O)NCC(=O)N[C@@H](CO)C(=O)NCC(=O)N[C@@H](CO)C(=O)N[C@@H](CO)C(=O)N[C@@H](CCC(N)=O)C(=O)N[C@@H](CO)C(=O)N[C@@H](CO)C(=O)NCC(=O)N[C@@H](Cc1ccc(O)cc1)C(=O)NCC(=O)N[C@@H](CCCNC(=N)N)C(=O)O)[C@@H](C)O [S-Pal-HRNR1089–1117] (H-C(Palmitoyl)GQHGATSSGQSSSHGQHGSGSSQSSGYGR-OH; N-terminus and C-terminus assumed) | – | > 150 µg/mL | – | – | – | –
